Results taken from US20250195599A1, “ANTI-DIABETIC STEROIDAL LACTONES OF WITHANIA COAGULANS FOR TREATMENT OF TYPE 2 DIABETES” (Khalifa University of Science and Technology, priority 2022, published 2025).

How the values were obtained:
[1] = tested on: Diseased Human Skeletal Muscle Myoblasts (D-HSMM) diabetes type II; type: cell-based
Description: Measurement of cellular viability: Cell proliferation was measured by using MTT 3-(4,5-dimethylthiazol-2-yl)-2,5-diphenyltetrazolium bromide (MTT) (Cat no: M2128, Sigma Aldrich, USA). […] After 48 h of incubation, plates were removed from the CO2incubator and washed with 200 μl PBS. Thereafter, 100 μl of MTT solution (0.5 mg/ml in SkGM-2 medium) was added to each well. The contents were placed on a shaker for 5 min and were incubated for 4 hours in a CO2 incubator to allow the MTT to be metabolized. After incubation, the supernatant was removed, and the plate was washed with 300 μl PBS. The plates were inverted and strongly tapped on a paper towel to remove the medium completely. […] For the blank control, wells were set without cells but received all the reagents.

myogenin = assay: Myogenin immunofluorescence staining in D-HSMM; type: cell-based, human; settings: 48 h, optimum concentration, vs. D-HSMM control (untreated cells), FIG. 3A
Description: The supernatant was removed, cells were washed with warm PBS (37° C.), fixed with 100 μl PBS containing 4% paraformaldehyde at room temperature for 10 mins. Cells were permeabilized with 100 μl of 0.25% Triton X-100 on PBS for 10 mins at 25° C. The cells were then blocked with 100 μl of 10% normal goat serum (NGS), incubated with 50 μl of primary anti-myogenin antibody (Cat no: MAB3876, Merck Millipore, USA) diluted 1:500 in block solution overnight at 4° C. Cells were washed in PBS (200 μl) three times, incubated with 50 μl Goat anti-Mouse IgG (H+L) secondary antibody (Cross adsorbed, Alexa Fluor 594, Cat no: R37121, Thermo Fisher Scientific, USA) at room temperature for 30 min. Nuclei were counterstained with 1 μg/ml Hoechst 33342 solution (Cat no: 62249, Thermo Fisher Scientific, USA) in PBS (100 μl/well). For each treatment, cells were examined under EVOS F1 Microscope (Cat no: AMF4300, Life Technologies, USA) and photographed. Approximately 10-12 digital photographs were taken of each treatment for subsequent offline analysis. The total number of immune-positive and immuno-negative cells were counted using Image J (NIH, USA) software. […] Data were presented as a percentage of control (untreated cells).

MAFbx/atrogin-1 = assay: Atrogin-1/Fbx32 immunofluorescence staining in D-HSMM; type: cell-based, human; settings: 48 h, optimum concentration, vs. control (non-treated cells), FIG. 4A
Description: The supernatant was removed, cells were washed with warm PBS (37° C.), fixed with phosphate-buffered saline (PBS) containing 4% paraformaldehyde at room temperature for 10 mins. Cells were permeabilized with 0.25% Triton X-100 on PBS for 10 mins at 25° C. The cells were then blocked with 100 μl of 10% NGS in PBS at room temperature for 2 hours. The cells were then incubated with 50 μl primary Anti-Fbx32 antibody (Cat no: NBP2-76836, Novus Biological, USA) diluted 1:100 in block solution overnight at 4° C. Cells were washed in PBS three times (200 μl), incubated with 50 μl Goat anti-Rabbit IgG (H+L) (Cross adsorbed, Alexa Fluor 488, Cat no: R37116, Thermo Fisher Scientific, USA) secondary antibody at room temperature for 30 min. Nuclei were counterstained with 1 μg/ml Hoechst 33342 solution (Cat no: 62249, Thermo Fisher Scientific, USA) in PBS (100 μl/well). For each treatment, cells were examined under EVOS F1 Microscope (Cat no: AMF4300, Life Technologies, USA) and photographed. Approximately 10-12 digital photographs were taken of each treatment for subsequent offline analysis. The total number of immune-positive and immuno-negative cells were counted using Image J (NIH, USA) software. […] Data were presented as a percentage of control (untreated cells).

MyoD = assay: MyoD1 immunofluorescence staining in D-HSMM; type: cell-based, human; settings: for MyoD positive cells: optimum concentration, vs. D-HSMM control (non-treated cells)
Description: The supernatant was removed, cells were washed with warm PBS (37° C.), fixed, and permeabilized with 100 μl phosphate-buffered saline (PBS) containing 4% paraformaldehyde and 0.1% Triton X-100 at room temperature for 10 mins. Next, cells were blocked with 1% BSA (100 μl) in PBS at room temperature for 1 hour. The cells were then incubated with 50 μl of primary anti-MyoD1 antibody (Cat no: ab16148, Abcam, USA), diluted 1:100 in a block solution, overnight at 4° C. Cells were washed in PBS three times, incubated with 50 μl Goat anti-Mouse IgG (H+L) secondary antibody (Cross adsorbed, Alexa Fluor 594, Cat no: R37121, Thermo Fisher Scientific, USA) at room temperature for 30 min. Nuclei were counterstained with 1 μg/ml Hoechst 33342 solution (Cat no: 62249, Thermo Fisher Scientific, USA) in PBS (100 μl/well). For each treatment, cells were examined under EVOS F1 Microscope (Cat no: AMF4300, Life Technologies, USA) and photographed. Approximately 10-12 digital photographs were taken of each treatment for subsequent offline analysis. The total number of immune-positive and immuno-negative cells were counted using Image J (NIH, USA) software. […] Data were presented as a percentage of control (untreated cells).

GLUT1 = assay: Cell-based GLUT1 ELISA in D-HSMM myotubes; set-up: species or system human; settings: treated 24 h on day 8, FIG. 6A
Description: After 24 hours, GLUT1 was measured by using CytoGlow™ cell-based GLUT 1 ELISA kit (Cat no: MBS95002558, MyBioSource, USA), according to the manufacturer's protocol. Briefly, cells were fixed with phosphate-buffered saline (PBS) containing 4% paraformaldehyde at room temperature for 20 mins. Next, cells were quenched for 20 mins at room temperature. Cells were washed in PBS three times, blocked at room temperature for 1 hour. Cells were washed in PBS three times, incubated with primary GLUTI antibody overnight at 4° C. Cells were washed in PBS three times (200 μl), incubated with HRP-conjugated secondary antibody at room temperature for 1.5 hours. Cells were washed in PBS three times and incubated with a ready-to-use substrate for 30 minutes at room temperature in the dark with gentle shaking on the shaker. The reaction was stopped, and OD was measured at 450 nm immediately using an Emax Plus microplate reader (Molecular devices, CA 94089, USA).

GLUT4 = assay: Total GLUT4 immunofluorescence in D-HSMM myotubes; type: cell-based, human; settings: FIG. 6B; for expression of GLUT-4: treated 24 h on day 8, 100 nM insulin challenge, vs. D-HSMM control (untreated cell)
Description: Measurement of Total GLUT4: Approximately 2×10^3 cells were seeded in a 96 well clear bottom black poly D lysine (5 μg/cm^2) coated plate and allow to grow with a media change after every 48 h. […] The supernatant was removed and challenged for 5 mins with 100 nM insulin. Next, cells were washed with warm PBS (37° C.), fixed with phosphate-buffered saline (PBS) containing 4% paraformaldehyde at room temperature for 10 mins. Cells were permeabilized with 0.5% Triton X-100 on PBS for 10 mins at 25° C. The cells were then blocked with 100 μl of 10% NGS in PBS at room temperature for 2 hours. The cells were then incubated with 50 μl GLUT4 antibody (Cat no: NBP1-49533, Novus Biological, USA) diluted 1:100 in block solution overnight at 4° C. Cells were washed in PBS three times (200 μl), incubated with 50 μl Goat anti-Rabbit IgG (H+L) (Cross adsorbed, Alexa Fluor 488, Cat no: R37116, Thermo Fisher Scientific, USA) secondary antibody at room temperature for 30 min. Total fluorescence was measured m at […] (excitation/emission) by Tecan multimode plate reader (M200, Tecan, Switzerland). Cells without primary antibody were used for blank reduction. The relative GLUT 4 (%) related to control wells containing cells with DMEM:F12 medium was calculated by (RFU) test/(RFU) control×100. Where (RFU) test is the fluorescence of the test sample and (RFU) control is the fluorescence of the control sample.

D-HSMM myotubes = assay: Insulin-stimulated 2-NBDG glucose uptake in D-HSMM myotubes; type: cell-based, human; settings: FIG. 7
Description: Insulin-stimulated 2-NBDG uptake: The ability of the test compounds on insulin-stimulated glucose uptake was measured using the Glucose Uptake Cell-Based Assay Kit (Cat no: 600470, Cayman, Michigan, USA) according to the manufacturer's instructions. Briefly, the cells were seeded at a density of 2×10^3 cells/well in a 96 well black, clear-bottom poly D lysine coated plate and allowed to grow with a media change after every 48 hours. […] Subsequently, cells were washed with 300 μl PBS three times and incubated with PBS for 5 mins at 37° C., in a CO2 incubator. Cells were challenged for 20 min with 50 μl of 100 nM insulin and 50 μl of 100 μg/ml fluorescent glucose analog 2-deoxy-2-[(7-nitro-2,1,3-benzoxadiazol-4-yl) amino]-D-glucose (2-NBDG) in Krebs/Ringer buffer (KRB) (118.5 mM NaCl, 25 mM NaHCO3, 4.74 mM KCl, 1.19 mM MgSO4, 2.54 mM CaCl2, 10 mM HEPES, 1.19 mM KH2PO4, 0.1% BSA) (pH 7.4). At the end of the incubation, the plates were centrifuged for 3 mins at 400×g at room temperature, and the supernatant was aspirated. Cells were washed with 200 μl/well cell-based assay buffer and centrifuged for 3 mins at 400×g at room temperature. […] The fluorescence reading of each well was immediately measured (excitation/emission=485 nm/535 nm) by using a Tecan multimode plate reader (Cat no: M200, Tecan, Switzerland). […]

urease = settings: stated as background knowledge; cited from earlier work
bovine embryo = settings: stated as background knowledge; cited from earlier work
[2] = tested on: Diseased Human Skeletal Muscle Myoblasts (D-HSMM) diabetes type II; assay: LDH release cytotoxicity assay; settings: D-HSMM myoblasts treated 48 h; W. Coagulans and Coagulansin-A 1×10^−15 g/ml; vs. control (non-treated cells); FIG. 2A
Description: Cell line: The Clonetics® Diseased Human Skeletal Muscle Myoblasts (D-HSMM) diabetes type II, (Cat no: CC-2901) sourced from a donor, were purchased from Lonza (Lonza Bioscience, USA).
Cells were cultured in the growth medium, Skeletal Muscle Growth Media-2 (SkGM-2; CC-3244) containing basal medium, Human epidermal growth factor (hEGF), Dexamethasone, L-glutamine, Fetal Bovine Serum (FBS), and Gentamicin/Amphotericin B (GA-1000). Cells were seeded at 6250 cells/cm^2 in T175 flasks and maintained at 37° C. in a humidified incubator (Thermo Scientific, USA) containing 5% carbon dioxide (CO2). After 24 hours, when cells adhered to the bottom of the flask, media was changed every 24-48 hours. […]
The cytotoxicity detection kit (Cat no: 11644793001, Roche, USA) was used to measure lactate dehydrogenase (LDH) release according to the manufacturer's instructions. Briefly, released LDH in culture supernatants was measured with a 30-mins coupled enzymatic assay that results in the reduction of tetrazolium salt, Iodotetrazolium chloride (INT) into a formazan (red). […] Absorbance at 490 nm was measured with an Emax Plus microplate reader (CA 94089, Molecular devices, USA). The reader was calibrated to zero absorbance using a culture medium without cells. The untreated cells served as the control, and results were calculated as the percentage of viability in relation to the control. […]

Row | Compound | MTT metabolic rate, dose optimization [1] | MTT viability [1] | expression of myogenin (myogenin) | expression of atrogin1 (MAFbx/atrogin-1) | MyoD positive cells compared to metformin and pioglitazone (MyoD; D-HSMM myoblasts, 48 h, vs. metformin and pioglitazone treated cells, FIG. 5A) | MyoD positive cells (MyoD; D-HSMM, 48 h, FIG. 5A) | MyoD positive cells, dose optimization (MyoD; D-HSMM, concentration 10^−15 g/ml (of 10^−13, 10^−15, 10^−17 g/ml tested), vs. diabetic control, FIG. 9) | expression of GLUT1 (GLUT1) | expression of GLUT-4 (GLUT4) | expression of GLUT-4 compared to metformin (GLUT4; vs. metformin (as printed in text)) | insulin-stimulated glucose uptake (2-NBDG) (D-HSMM myotubes; treated 24 h, vs. control (untreated cells)) | insulin-stimulated glucose uptake compared to positive controls (D-HSMM myotubes; vs. insulin, metformin, and pioglitazone) | antiurease activity (urease) | effects on development of bovine embryo (bovine embryo) | LDH release [2]
1 | CC1=C(CO)C(=O)O[C@@H]([C@](C)(O)[C@]2(O)CC[C@@]3(O)C4CC=C5CC=CC(=O)[C@]5(C)C4CC[C@]23C)C1 (stereo partly drawn) [Coagulansin-A, (14α, 17S,20S,22R)-14, 17,20,27-tetrahydroxy-1-oxowitha-2,5,24-trienolide)] | did not affect the metabolic rate | did not affect the viability | significantly increased expression | significantly suppressed expression | Significantly increased MyoD positive cells | enhanced expression | enhanced expression | remained unaffected | upregulated | significant increase | significantly enhanced glucose uptake | increased glucose uptake | antiurease activity | beneficial effects on development of bovine embryo | –
2 | COc1ccc(Cl)cc1C(=O)NCCc1ccc(S(=O)(=O)NC(=O)NC2CCCCC2)cc1 [Glibenclamide, reference compound] | – | – | – | – | – | enhanced expression | – | – | – | – | – | – | – | – | –
3 | CN(C)C(=N)N=C(N)N [Metformin] | – | – | remained unaffected | significantly suppressed expression | – | did not show any difference | – | – | – | – | – | – | – | – | –
4 | Insulin | – | – | significantly increased expression | significantly suppressed expression | – | enhanced expression | – | – | upregulated | – | – | – | – | – | significant decrease
